Read-outs that look alike come from different tables or passages of the source.
Key:
Fish = test: Tank diving experiments (Example 8); format: in vivo
Protocol: Fish were exposed to drug, either pure CBD, CBD containing terpenes, or CBD plus CBG, in a litre of water for 30 min prior to being transferred to a novel tank containing fresh fish water in the absence of drug using a net and their behaviour recorded over a 6 min period using a camera mounted to one side. The vertical position of the fish in the tank can reliably be used as a proxy for an individual's anxiety. For example, the less time a fish spends on the bottom of the tank the less anxious. The response variables were number of visits to the top half of the tank, distance from the bottom of the tank, and proportion of time spent in the bottom third of the tank. Time spent on the bottom, distance travelled and number of top half visits determining using Ethovision software (Noldus). Water was changed, tanks and fish nets cleaned between each fish.
The anxiolytic concentration of CBD was first assessed by treating the fish with 0-15 mg/L CBD.
The ratio of CBD minus terpenes:CBD plus terpenes tested was 2:0, 1.5:0.5, 1:1, 0.5:1.5 and 0:2.

5 dpf zebrafish larvae = format: in vivo, Zebrafish (Danio rerio)
Protocol: Fish were bred and reared in the aquarium facility at Queen Mary University of London, licenced by the UK Home Office. Zebrafish (Danio rerio) adults from the Tuebingen wild type (TUWT) line were kept in glass breeding tanks in fish water that contain sodium bicarbonate (0.9 mM), calcium sulphate (0.05 mM) and marine salts (Sigma, Poole, UK; 0.018 g/l). Fish were maintained on a constant 14 h light: 10 h dark cycle at 28° C. They were fed 2 times a day with Zmsystems® ZM-000 high protein food particle (Tecniplast® UK. London) from 5 dpf-10 dpf, ZM-100 and paramecium from 11 dpf-14 dpf, and, ZM-200 and brineshrimp from 14 dpf-30 dpf. At one month of age, animals were transferred into the aquaria where they were fed Zmsystems® flake food and brineshrimp.
After incubation the 48-well plate was placed in a DanioVision Observation Chamber (Noldus) and the larvae were subjected to a forced dark/light transition assay while still in the compound solution. The assay consisted of a 10 min baseline period in the dark, followed by a 10 min light challenge, followed by a 15 min dark period. DanioVision Observation Chamber controlled the lighting and recorded the assay with an infrared camera (resolution, 30 frames per second (fps)). Footage obtained was processed by EthoVision XT NUMBER (Noldus). Mean distance moved was measured with 10 second intervals.
All statistical analyses were carried out in R version 3.2.2 (R core developer team reference). Data distributions and model fit were initially assessed visually. AIC values were used in model selection. Due to difference in variance between groups we fitted a linear mixed model (LMM) in the gls package (ref).
It was first assessed whether the different compounds and concentrations were associated with differences in locomotion after 30 min exposure. We subsetted the last min in the baseline and fitted an LME with mean distance moved as the response variable, compound as the fixed effect, and individual as the random effect, with a variance structure for compound.
The light challenge and dark phase were subsetted to assess if different compounds and concentrations were associated with different patterns of movement. In the light challenge the increase of movement over time was considered recovery. In the dark phase decrease of movement was considered recovery. We fitted an LME with mean distance moved (in 10 second time bins) as the response variable, the interaction between time and concentration as a fixed effect, individual as the random effect and introduced a variant structure to account for the heterogeneity in variance between drugs.

5 dpf larvae = test: Forced light/dark transition test, 10 min dark-(5 min light-5 min dark)*3-5 min dark (Example 4); format: in vivo, zebrafish
Protocol: • All the tests were done with 5 dpf larvae unless stated otherwise. • A forced light/dark transition test was used. (10 min dark-(5 min light-5 min dark)*3-5 min dark) • The dose response curve was made as follows; • The locomotor activity of the larvae at the last min of acclimation (min 9-10 in the assay), was taken • The mean for each larvae over this period of time was calculated • Then the mean of each condition was calculated • The means plotted are relative to the control, control was set at 1

larvae = test: Forced light/dark transition assay screening hemp extracts, diazepam and caffeine (Example 5); format: in vivo, zebrafish; conditions: for response when the light is switched on (from trace): whole duration of the assay
Protocol: Our forced light/dark transition protocol was as follows. First, there was 10 minutes of total darkness (which we refer to as the baseline period; compounds were introduced at the beginning of the baseline period, and 10 minutes were allotted to allow for drug absorption and acclimation). Next, there was a period of five minutes of light exposure followed by five minutes of dark exposure, repeated three times. Finally, there was an additional five minutes of dark exposure.
A variety of statistical techniques were used to address our hypotheses about the potential anxiolytic and anxiogenic effects of four compounds. In outline: • 1) Overall models were carried out using linear mixed-effect models • 2) Deliberate pairwise comparisons between controls and dosages of interest were carried out using appropriate two-sample comparison tests
All statistical analyses were carried out in R version 3.2.2 (R core developer team). Overall models were linear mixed-effects models (LMMs), and were fitted using the Ime4 package (Bates, Machler, Bolker, & Walker, 2015). Data were transformed as indicated to fit the assumptions of LMMs. Posthoc tests were performed using the multcomp package in R. Data distributions were initially assessed visually and model diagnostics were subsequently checked to assure appropriate fits.
Comparisons between patterns of activity during the light phases (i.e. rate of recovery during light phases, which indicates a possible anxiolytic or anxiogenic effect) were performed by analysing the slope of the linear regression function of individual mean distance vs time during light phases.
For pairwise comparisons on specific concentrations, nonparametric tests are used as indicated on non-normally distributed data.

[1] = 1% ethanol, 80 mg/L caffeine, 250 μg/L fluoxetine, 100 mM NaCl
[2] = 2 mg/L CBD in combination with 0-5 mg/L CBG

C=C(C)[C@@H]1CCC(C)=C[C@H]1c1c(O)cc(CCCCC)cc1O [CBD, Cannabidiol]
anxiolytic effect in tank diving (top half visits, distance from bottom, time in bottom third) (Fish; 0-15 mg/L CBD, 30 min exposure, 6 min recording): anxiolytic effect

CNCCC(Oc1ccc(C(F)(F)F)cc1)c1ccccc1 (centres unmarked) [Fluoxetine, fluoxetine]
basal locomotion (last minute of baseline) vs DMSO (5 dpf zebrafish larvae; [1]): move significantly less than DMSO | movement in the beginning of the dark period / in the dark phase vs DMSO (5 dpf zebrafish larvae; [1]): move less overall in the dark phase | rate of recovery in the dark phase (decrease of movement over time) vs DMSO (5 dpf zebrafish larvae; [1]): recover less over time | rate of recovery in the light challenge (increase of movement over time) vs DMSO (5 dpf zebrafish larvae; [1]): recover less over time

CCCCCc1cc(O)c(C/C=C(\C)CCC=C(C)C)c(O)c1 [CBG, Cannabigerol]
anxiolytic / anxiogenic effect of CBG in the mixture (Fish; [2]): displays no anxiolytic effect, but may potentially have an undesirable anxiogenic effect | distance from the bottom of the tank (Fish; [2]): no significant change in the distance from the bottom of the tank with increasing CBG concentration | frequency of visits to the top half of the tank (Fish; [2]): decreased with increasing concentration of CBG | proportion of time spent in the bottom third of the tank (Fish; [2]): spend a greater proportion of time in the bottom third of the tank

[Cl-].[Na+] [NaCl]
basal locomotion (last minute of baseline) vs DMSO (5 dpf zebrafish larvae; zebrafish, in vivo): no difference in locomotion | freezing in the light challenge vs DMSO (5 dpf zebrafish larvae; zebrafish, in vivo): froze less | movement in the beginning of the dark period / in the dark phase vs DMSO (5 dpf zebrafish larvae; zebrafish, in vivo): no difference in movement in the beginning of the dark period | rate of recovery in the dark phase (decrease of movement over time) vs DMSO (5 dpf zebrafish larvae; zebrafish, in vivo): recovers slower than DMSO | rate of recovery in the light challenge (increase of movement over time) vs DMSO (5 dpf zebrafish larvae; zebrafish, in vivo): did not recover differently from DMSO

CCO [ethanol]
rate of recovery in the dark phase (decrease of movement over time) vs DMSO (5 dpf zebrafish larvae; [1]): recovers faster | rate of recovery in the light challenge (increase of movement over time) vs DMSO (5 dpf zebrafish larvae; [1]): negative impact of locomotion over time | basal locomotion (last minute of baseline) vs DMSO (5 dpf zebrafish larvae; zebrafish, in vivo): moved significantly more than DMSO | freezing in the light challenge vs DMSO (5 dpf zebrafish larvae; zebrafish, in vivo): froze less in the beginning of the light challenge | movement in the beginning of the dark period / in the dark phase vs DMSO (5 dpf zebrafish larvae; zebrafish, in vivo): moves more at the beginning of the dark period compared to DMSO | behaviour in the acclimation period (5 dpf larvae; 0.25% ethanol): start moving erratically | behaviour when turning on the light (5 dpf larvae; 0.5% ethanol, most groups freeze): starts moving more than before

CN1C(=O)CN=C(c2ccccc2)c2cc(Cl)ccc21 [diazepam]
rate of recovery (slope) during light phases vs DMSO control (larvae; 0.25 μM): significantly higher slope, or rate of recovery | rate of recovery (slope of linear regression) during the first light phase (Kruskal-Wallis) (larvae; Experiment 1 (diazepam), all dosages): faster rate of recovery | mean distance moved over time in the light challenge vs control (larvae; Experiment 2 (diazepam), 2.5 μM, minute 10 to 20): increases movement over time faster than the control in the light challenge | mean distance moved over time in the dark period vs control (larvae; Experiment 2 (diazepam), 2.5 μM, minute 20 to 30): decreases movement over time faster than the control in the dark period | mean distance moved in the baseline period (LMM) (larvae; Experiment 2 (diazepam), minute 9 to 10): no significant difference found in mean distance moved in the baseline period | dosages with significantly lower distance moved than the control fish (Tukey post hoc) (larvae; after ~10 minutes of exposure, Experiment 1 (diazepam)): ≥ 0.25 µM | time×dosage and dosage×light phase number as predictors of mean distance moved during light phases (LMM) (larvae; light phases): Both fixed effects were significant predictors of mean distance moved | response when the light is switched on (from trace) (larvae): stops the fish moving to the bottom of the tank | anxiolytic effect (overall conclusion) (larvae; zebrafish, in vivo): anxiolytic effect | effect on locomotor (5 dpf larvae; 5 dpf larvae, dose response): impairment diazepam has on locomotor

Cn1c(=O)c2c(ncn2C)n(C)c1=O [caffeine]
basal locomotion (last minute of baseline) vs DMSO (5 dpf zebrafish larvae; [1]): move significantly less than DMSO | freezing in the light challenge vs DMSO (5 dpf zebrafish larvae; [1]): froze less in the beginning of the light challenge | movement in the beginning of the dark period / in the dark phase vs DMSO (5 dpf zebrafish larvae; [1]): move less overall in the dark phase | rate of recovery in the dark phase (decrease of movement over time) vs DMSO (5 dpf zebrafish larvae; [1]): recover less over time | rate of recovery in the light challenge (increase of movement over time) vs DMSO (5 dpf zebrafish larvae; [1]): negative impact of locomotion over time | dosage with significantly lower locomotion than control larvae (Tukey posthoc) (larvae; after ~10 minutes of exposure): 80 mg/L | dosage as predictor of mean distance moved after ~10 minutes of exposure (LMM) (larvae; last minute of baseline, dark): Dosage was a significant predictor of mean distance moved after 10 minutes of exposure | dosages significantly different from the control during light phases (Tukey posthoc pairwise comparison) (larvae; light phases): ≥ 40 mg/L | time×dosage and dosage×light phase number as predictors of mean distance moved during light phases (LMM) (larvae; light phases): Both fixed effects were significant predictors of mean distance moved | response when the light is switched on (from trace) (larvae): much the same for all doses
